Results taken from patent publication US10676496B2, “Method for producing flavonoid inclusion compound” (TAIYO KAGAKU CO., LTD., priority 2017, dated 2020).
Like-named read-outs stand apart in the source and are kept apart here.

What was measured:
[1] = Evaluation of storage stability (green tea); assay type: physicochemical; conditions: 0.03% as hesperetin-7-glucoside; for presence or absence of the precipitates, 4° C.: 7 days at 4° C.; for presence or absence of the precipitates, 25° C.: 7 days at 25° C.
Experimental: Evaluation of Storage Stability (Green Tea)
Hesperidin (manufactured by Hamari Chemicals., Ltd.), hesperetin-7-glucoside (prepared in the following), a flavonoid inclusion compound of Example 22 or a composition of flavonoid glycosides of Example 40 was added to a commercially available green tea (“Oi Ocha,” manufactured by ITO EN, LTD.) so as to have a concentration calculated as 0.03% in terms of hesperetin-7-glucoside conversion. The mixture was allowed to stand for 7 days at 4° C. and 25° C., and the presence or absence of the precipitates was then visually observed.
Seven grams of Hesperidin (manufactured by Hamari Chemicals., Ltd.) was added to […] of an aqueous solution, and the solution was adjusted to 70° C. and a pH of 4.5. Thereafter, 0.5 g of naringinase (Amano Enzyme Inc. 155 u/g) was added thereto while stirring, and the solution was recovered and dried, to give 4.2 g of hesperetin-7-glucoside having a content of 96% or more. Identification as being hesperetin-7-glucoside and a content thereof were analyzed by NMR and HPLC in the same manner as mentioned above.

[2] = cited from earlier work
[3] = Evaluation of bioavailability; assay type: in vivo
Text: Evaluation of Bioavailability
Nine-week-old Wister rats (male) were given with MF (Oriental Yeast Co., Ltd.) and bred for 7 days, and the rats were then subjected to fasting from the day before the administration of a test substance. Thereafter, 100 μmol/kg (calculated as IQC) of a dried product of Example 16 prepared in the evaluation of the effects of preventing flavor deterioration, a rutin suspension (Alps Pharmaceutical Ind., Co., Ltd., 100 μmol/kg (calculated as IQC)), 1,000 μmol/kg (calculated as HPT-7G) of dried product of Example 22 prepared in the evaluations of the effects of preventing flavor deterioration, and a hesperidin suspension (Hamari Chemicals., Ltd., 1,000 μmol/kg (calculated as HPT-7G)) were orally administered to the rats in a single dose (orally administered by gavage, n=2). Blood collection into heparinized tubes was carried out from tail veins of rats 30 minutes, 1 hour and 3 hours after the administration, and the blood was centrifuged to obtain plasma. In the drawn sera sample, the amounts of quercetin derivatives were measured according to a method by Makino et al (Biol. pharm. Bull., 32(12) 2034, 2009), and the amounts of hesperetin derivatives were measured according to a method by Yamada et al (Biosci. Biotechnol. Biochem, 70(6), 1386, 2006), and analysis was made by applying the sample to high-performance liquid chromatography (SHIMADZU) and using a photodiode array detector (SPD-M30A, SHIMADZU).

[4] = Evaluation of storage stability (lemon beverage); assay type: physicochemical; conditions: 0.3% as naringenin-7-glucoside; for presence or absence of the precipitates, 4° C.: 1 month at 4° C.; for presence or absence of the precipitates, 25° C.: 1 month at 25° C.
Experimental: Evaluation of Storage Stability (Lemon Beverage)
Naringin (manufactured by SIGMA), naringenin-7-glucoside (prepared hereinbelow) or a flavonoid inclusion compound-containing composition of Example 109 was added to a commercially available lemon beverage (C1000 Lemon Water, manufactured by HOUSE […] FOODS CORPORATION) so as to have a concentration calculated as 0.3% in terms of naringenin-7-glucoside conversion, the beverage was allowed to stand for 1 month at 4° C. or 25° C., and the presence or absence of the precipitates was then visually observed.
After the termination of the reaction according to Comparative Example 102, the precipitates that were previously allowed to stand at room temperature were recovered, washed with water, recrystallized and dried, to give 13 g of naringenin-7-glucoside having a content of 95% or more. The identity of the product with a reagent naringenin-7-glucoside (Wako) by HPLC and a content thereof were analyzed.

[5] = compared with rutin, hesperidin, or naringin having a rhamnoside structure

COc1ccc(C2CC(=O)c3c(O)cc(OC4OC(CO)C(O)C(O)C4O)cc3O2)cc1O (stereo not drawn) [Hesperetin-7-Glucoside, hesperetin-7-glucoside]
presence or absence of the precipitates, 4° C. [1]: x (those in which the precipitates were observed were evaluated as x)
presence or absence of the precipitates, 25° C. [1]: x (those in which the precipitates were observed were evaluated as x)
bioavailability in rats ([2]; rat, in vivo): higher

COc1ccc([C@@H]2CC(=O)c3c(O)cc(O[C@@H]4O[C@H](CO[C@@H]5O[C@@H](C)[C@H](O)[C@@H](O)[C@H]5O)[C@@H](O)[C@H](O)[C@H]4O)cc3O2)cc1O [Hesperidin]
presence or absence of the precipitates, 4° C. [1]: x (those in which the precipitates were observed were evaluated as x)
presence or absence of the precipitates, 25° C. [1]: x (those in which the precipitates were observed were evaluated as x)
AUC, hesperetin ([3]; rat plasma, single oral 1,000 μmol/kg (calculated as HPT-7G), 0 to 3 hours): 0.082 µM·h
Hesperetin concentration ([3]; rat plasma, single oral 1,000 μmol/kg (calculated as HPT-7G), time of blood drawing 0): 0 µM
Hesperetin concentration ([3]; rat plasma, single oral 1,000 μmol/kg (calculated as HPT-7G), time of blood drawing 0.5 (hours)): 0.003 µM
Hesperetin concentration ([3]; rat plasma, single oral 1,000 μmol/kg (calculated as HPT-7G), time of blood drawing 1 (hour)): 0.064 µM
Hesperetin concentration ([3]; rat plasma, single oral 1,000 μmol/kg (calculated as HPT-7G), time of blood drawing 3 (hours)): 0 µM

O=c1c(O[C@@H]2O[C@H](CO)[C@@H](O)[C@H](O)[C@H]2O)c(-c2ccc(O)c(O)c2)oc2cc(O)cc(O)c12 [Isoquercitrin, isoquercitrin]
bioavailability in rats [2, 5]: higher

O=C1C[C@@H](c2ccc(O)cc2)Oc2cc(O[C@@H]3O[C@H](CO)[C@@H](O)[C@H](O)[C@H]3O)cc(O)c21 [Naringenin-7-glucoside, naringenin-7-glucoside]
bioavailability in rats [2, 5]: higher
presence or absence of the precipitates, 4° C. [4]: x (those in which the precipitates were observed were evaluated as x)
presence or absence of the precipitates, 25° C. [4]: x (those in which the precipitates were observed were evaluated as x)

C[C@@H]1O[C@@H](O[C@H]2[C@H](Oc3cc(O)c4c(c3)O[C@H](c3ccc(O)cc3)CC4=O)O[C@H](CO)[C@@H](O)[C@@H]2O)[C@H](O)[C@H](O)[C@H]1O [Naringin]
presence or absence of the precipitates, 4° C. [4]: x (those in which the precipitates were observed were evaluated as x)
presence or absence of the precipitates, 25° C. [4]: x (those in which the precipitates were observed were evaluated as x)

C[C@@H]1O[C@@H](OC[C@H]2O[C@@H](Oc3c(-c4ccc(O)c(O)c4)oc4cc(O)cc(O)c4c3=O)[C@H](O)[C@@H](O)[C@@H]2O)[C@H](O)[C@H](O)[C@H]1O [Rutin Suspension, rutin]
AUC, Total (quercetin and quercetin derivatives) ([3]; male, Wister, rat, in vivo, po, 100 umol/kg): 0.1 µM·h

O=C1C[C@@H](c2ccc(O)cc2)Oc2cc(O)cc(O)c21 [naringenin]
bioavailability in rats [2, 5]: higher
